According to US9040501B2, “Compositions and methods for treating cancer” (Eisai Inc., priority 2009, dated 2015):

Columns and labels:
[1] = molecular target: cytidine deaminase (CDA) (Homo sapiens (Human), UniProt P32320); assay: Effect of ER-876437 on the half-life of gemcitabine in the presence of CDA in Tris-HCl buffer at 37° C.; format: biochemical
Description: This Example employed a Phenomenex Luna C18(2) HPLC column (100 Å 4.6×250 mm 5 μm). The solvent delivery system employed an HPLC quaternary pump, low pressure mixing. An autosampler having a variable loop, 0.1 to 100 μL range and temperature controlled thermostat was used. The UV detector can employ a dual wavelength detector, a diode array detector, a variable wavelength detector or equivalent, and can be recorded using chromatographic software (e.g., Waters Empower 2 Build 2154, Agilent ChemStation software version A.09.03 or higher for HPLC or equivalent). The analytical balance employed was capable of weighing ±0.1 mg. Degassed HPLC grade water and degassed HPLC grade acetonitrile were used as solvents for the mobile phases.
Gemcitabine Standard Control: 0.2 mM gemcitabine control was prepared by weighing […] of gemcitabine in a 10 mL volumetric flask. […] Solution was labeled as gemcitabine stock solution.

[2] = tested on: A2780 human ovarian cancer xenograft; assay: In vivo efficacy study in A2780 human ovarian cancer xenograft model; set-up: species or system female nude mice; conditions: qdx5 for two weeks
Description: Animals were dosed daily from Monday to Friday for two weeks.
Female nude mice (NU/NU, strain code 088, 6 weeks old, Charles River Laboratory) were implanted subcutaneously with 5×10^6 A2780 cancer cells per mouse. On day 13 when the tumors were approximately 150 mm^3, treatment started as described in Table 9.
Tumor volume and regressions were followed over time. Tumor volume was calculated by (length×width^2)/2. Note that a complete regression was defined as no measurable tumor for at least 3 consecutive measurements; while a partial regression was defined as tumor shrinkage to equal or less than 50% of original tumor volume for 3 consecutive measurements. Tumor growth delay (TGD) was defined as the median number of days for the control and treatment groups to grow to 342.14 mm^3. The average tumor volume on the first day of treatment (day 13) is 171.07 mm^3.

Sequence of cytidine deaminase (CDA) (P32320 whole entry): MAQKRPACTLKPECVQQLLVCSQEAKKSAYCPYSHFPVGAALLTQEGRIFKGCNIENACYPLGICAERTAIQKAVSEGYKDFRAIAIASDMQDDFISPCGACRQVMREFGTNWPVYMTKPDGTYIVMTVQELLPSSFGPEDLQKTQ

Compound: O=C1NCC=CCN1[C@@H]1O[C@H](CO)[C@@H](O)C1(F)F [ER-876437, 1-((2R,4R,5R)-3,3-difluoro-4-hydroxy-5-(hydroxymethyl)tetrahydrofuran-2-yl)-3,4-dihydro-1H-1,3-diazepin-2(7H)-one]
- gemcitabine remaining ([1]; CDA plus ER-876437 in the incubation mixture, after 7 h): greater than 95%
- inhibition of the effect of CDA on T1/2 of gemcitabine ([1]; Tris-HCl buffer at 37° C.): nearly completely inhibited
- levels of ER-876437 ([1]; after 7 hours of exposure to CDA with gemcitabine): not affected
- regressions or tumor free survivors at day 41 ([2]; gemcitabine 1 mg/kg PO alone or ER-876437 10 mg/kg PO alone): no regressions or tumor free survivors
- effect on tumor growth (FIG. 3) ([2]; gemcitabine 1 mg/kg PO and/or ER-876437 10 mg/kg PO (30 minutes prior)): no effect at all
- TGD (tumor growth delay) ([2]; gemcitabine 1 mg/kg PO and/or ER-876437 10 mg/kg PO (30 minutes prior), delay vs vehicle to reach 342.14 mm^3): 2 days
